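Method: 48-hour compound exposure of cells in 96-well plates, five concentrations, linear interpolation of endpoints. Definition used: TGI = concentration required for complete inhibition of growth.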

Among the test systems are NCI-H226 lung; HCT-116 colon; HL-60(TB) leukemia; RXF 393 renal; HOP-62 NSCLC; MOLT-4 leukemia; K-562 leukemia; SK-MEL-5 melanoma; A549 NSCLC; MALME-3M melanoma.
What all share (assay): inhibition of tumour cell growth, NCI panel, 48 h

Take `Cc1cc(C)nc(NS(=O)(=O)c2ccc(NC(=O)c3ccc4nc5ccccc5c(Nc5ccc(S(=O)(=O)N=C(N)N)cc5)c4c3)cc2)n1`: the TGI in the test on NCI-H226 lung, with HCT-116 colon, in the test with HL-60(TB) leukemia, with RXF 393 renal, with HOP-62 NSCLC and with MOLT-4 leukemia was > 100 µM throughout. Besides, the TGI in the test with K-562 leukemia, in the test on SK-MEL-5 melanoma, with A549 NSCLC and in the test on MALME-3M melanoma was > 100 µM in each case.

With `Cc1cc(C)n(C(C)(C(=O)Cc2ccccc2)n2nc(C)cc2C)n1`, the TGI in the test on NCI-H226 lung, in the test with HCT-116 colon, in the test on HL-60(TB) leukemia, in the test on RXF 393 renal, in the test on HOP-62 NSCLC and in the test on MOLT-4 leukemia was > 100 µM in each case. The TGI in the test on K-562 leukemia, in the test on SK-MEL-5 melanoma, with A549 NSCLC and in the test with MALME-3M melanoma was > 100 µM in each case.

As to `CN(CC(=O)O)c1ncc2c(n1)-c1ccccc1CC2`, the TGI in the test on NCI-H226 lung, with HCT-116 colon, in the test on HL-60(TB) leukemia, with RXF 393 renal, with HOP-62 NSCLC and with MOLT-4 leukemia was > 100 µM in each case. Besides, the TGI with K-562 leukemia, in the test with SK-MEL-5 melanoma, in the test with A549 NSCLC and in the test with MALME-3M melanoma was > 100 µM throughout.

As for `CCOC(=O)CCC(NC(=O)c1ccc(NCc2ccc3nc(OC)c(OC)nc3c2)c2ccccc12)C(=O)OCC` (stereo not given), the TGI in the test with NCI-H226 lung, in the test with HCT-116 colon, in the test with HL-60(TB) leukemia, in the test with RXF 393 renal, in the test with HOP-62 NSCLC and with MOLT-4 leukemia was > 100 µM in each case. In addition, the TGI in the test with K-562 leukemia, in the test on SK-MEL-5 melanoma, in the test with A549 NSCLC and with MALME-3M melanoma was > 100 µM throughout.

For the compound `Clc1ccc(-c2nn3c(COc4ccc(OCc5nnc6sc(-c7ccc(Cl)cc7)nn56)c(Cl)c4)nnc3s2)cc1`, the TGI with NCI-H226 lung was > 100 µM; in the test with HCT-116 colon, > 100 µM; in the test on HL-60(TB) leukemia, 36 µM; in the test with RXF 393 renal it was 44.1 µM; with HOP-62 NSCLC, 77.7 µM; in the test on MOLT-4 leukemia it was > 100 µM. For the same compound, the TGI with K-562 leukemia is > 100 µM; with SK-MEL-5 melanoma it was 80.2 µM; with A549 NSCLC, 90.2 µM; with MALME-3M melanoma it was > 100 µM.

In the case of `CC(C)(C)OC(=O)N1CCC2(CC1)C(=O)NCN2c1ccccc1`, the TGI in the test with NCI-H226 lung, in the test on HCT-116 colon, in the test with HL-60(TB) leukemia, with RXF 393 renal, with HOP-62 NSCLC and in the test on MOLT-4 leukemia was > 100 µM each time. Moreover, the TGI with K-562 leukemia, in the test with SK-MEL-5 melanoma, with A549 NSCLC and in the test with MALME-3M melanoma was > 100 µM in each case.

Regarding `CC(C)C(Nc1c2ccccc2[n+](C)c2ccccc12)C(=O)O` (stereo not given), the TGI in the test on NCI-H226 lung, with HCT-116 colon, with HL-60(TB) leukemia, with RXF 393 renal, with HOP-62 NSCLC and in the test on MOLT-4 leukemia was > 100 µM each time. Besides, the TGI with K-562 leukemia, with SK-MEL-5 melanoma, in the test on A549 NSCLC and in the test on MALME-3M melanoma was > 100 µM throughout.

Regarding `O=[N+]([O-])C(/C=C(\Cl)[N+](=O)[O-])=C(Nc1ccccc1)Nc1ccccc1`, the TGI is 27.4 µM in the test with NCI-H226 lung; 4.36 µM in the test with HCT-116 colon; 14.9 µM with HL-60(TB) leukemia; 10.5 µM in the test on RXF 393 renal; 4.8 µM in the test on HOP-62 NSCLC; 6.12 µM in the test with MOLT-4 leukemia. Also, the TGI in the test on K-562 leukemia is > 29.5 µM; in the test on SK-MEL-5 melanoma, 26.2 µM; in the test on A549 NSCLC, 31.8 µM; with MALME-3M melanoma, 21 µM.

Turning to `CC(C)NC(=O)OCCN=C1c2ccccc2C(Br)C(Br)c2ccccc21` (stereo not given), the TGI in the test with NCI-H226 lung is 33.2 µM; with HCT-116 colon, > 58.1 µM; in the test with HL-60(TB) leukemia it was 2.6 µM; in the test on RXF 393 renal it was 6.66 µM; with HOP-62 NSCLC it was 30 µM; in the test on MOLT-4 leukemia it was 14.9 µM. Besides, the TGI in the test on K-562 leukemia was 3.62 µM; in the test with SK-MEL-5 melanoma it was 21.1 µM; in the test with A549 NSCLC it was 62.4 µM; in the test on MALME-3M melanoma, 17.2 µM.

With `CCOC(=O)C(NC(=O)c1ccccc1)(Nc1ccc(S(=O)(=O)Nc2cc(C)on2)cc1)C(F)(F)F` (stereo not given), the TGI in the test with NCI-H226 lung, with HCT-116 colon, with HL-60(TB) leukemia, in the test with RXF 393 renal, with HOP-62 NSCLC and in the test with MOLT-4 leukemia was > 100 µM in each case. The TGI with K-562 leukemia, with SK-MEL-5 melanoma, with A549 NSCLC and with MALME-3M melanoma was > 100 µM each time.

Take `COc1cc2c(cc1OC)C(C1CC1)ON(C)CC2` (stereo not given): the TGI with NCI-H226 lung, with HCT-116 colon, with HL-60(TB) leukemia, in the test with RXF 393 renal, in the test on HOP-62 NSCLC and with MOLT-4 leukemia was > 100 µM throughout. The TGI in the test on K-562 leukemia, with SK-MEL-5 melanoma, with A549 NSCLC and in the test on MALME-3M melanoma was > 100 µM in each case.

Source of the values: PubChem BioAssay (NCI).
